Where two headings read alike, the source gives them in different places.
Legend:
[1] = target: T1, human Ret TKR-catalytic domain (Homo sapiens, UniProt P07949); assay: DELFIA Ret Kinase Assay (cell-free); type: biochemical
T1 construct: human Ret TKR-catalytic domain; purchased ProQinase
T1 sequence (P07949 724-1016 limits assumed): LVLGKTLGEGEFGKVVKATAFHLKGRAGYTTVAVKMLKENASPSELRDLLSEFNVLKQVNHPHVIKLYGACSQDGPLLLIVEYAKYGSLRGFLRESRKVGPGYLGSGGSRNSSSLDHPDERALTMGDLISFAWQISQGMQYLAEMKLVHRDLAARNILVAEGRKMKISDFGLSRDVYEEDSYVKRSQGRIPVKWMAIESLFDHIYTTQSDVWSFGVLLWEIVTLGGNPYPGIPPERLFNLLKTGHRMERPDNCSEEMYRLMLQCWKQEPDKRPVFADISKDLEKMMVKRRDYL
Method: In order to evidence and quantify inhibitory activity on Ret tyrosine kinase, the most representative compounds of the invention were tested with a dedicated DELFIA kinase assay, using a human tyrosine-kinase receptor (Ret TKR) recombinant form (human Ret TKR-catalytic domain) available from ProQinase as the tyrosine kinase.
After 10 min. incubation at 30° C., the kinase reactions were worked up as in the DELFIA cKit Kinase Assay.

[2] = target: T2, Human cKit Tyrosine Kinase Receptor (human cKit RTK-catalytic domain) (Homo sapiens, UniProt P10721); assay: DELFIA cKit Tyrosine Kinase Assay (cell-free); type: biochemical
T2 construct: human cKit RTK-catalytic domain; purchased Panvera-Invitrogen P3080
T2 sequence (P10721 589-937 limits assumed): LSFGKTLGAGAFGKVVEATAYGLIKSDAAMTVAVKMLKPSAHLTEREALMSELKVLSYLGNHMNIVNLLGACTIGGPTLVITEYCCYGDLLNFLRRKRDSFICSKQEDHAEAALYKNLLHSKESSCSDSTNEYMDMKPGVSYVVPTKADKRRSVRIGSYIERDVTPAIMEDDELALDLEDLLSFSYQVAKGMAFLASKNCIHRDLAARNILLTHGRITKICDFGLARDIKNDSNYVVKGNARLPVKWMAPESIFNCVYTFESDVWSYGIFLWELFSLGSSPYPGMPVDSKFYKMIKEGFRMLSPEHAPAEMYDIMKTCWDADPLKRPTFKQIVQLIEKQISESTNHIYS
Method: The compounds of the invention were tested with a dedicated cell-free kinase assay for the evaluation of the inhibiting activity on tyrosine kinases.
In more detail, the assay was a DELFIA™ (Dissociation Enhanced Time-Resolved Fluorometric Assay) Tyrosine Kinase Assay™ (PerkinElmer), a highly sensitive, reproducible ELISA assay that allows to evaluate the activity of a tyrosine kinase.
Human cKit Tyrosine Kinase Receptor (human cKit RTK-catalytic domain), commercially available from Panvera-Invitrogen (Cat. N^o. P3080), was used as the tyrosine kinase.
After 1 hour incubation at room temperature and three washings with 1×DELFIA Wash Buffer (PerkinElmer), the phosphotyrosine residues of the acceptor were detected with an europium-labelled anti-phosphotyrosine monoclonal antibody (DELFIA Eu-N1 labelled anti-phosphotyrosine antibody PT66, PerkinElmer) and, after a further hour incubation at room temperature and three washings with 1×DELFIA Wash Buffer, overall phosphorylation of biotinylated polyGAT was determined by addition of Enhancement Solution (PerkinElmer) and fluorimetric analysis of the plates (α-Fusion FP HT, PerkinElmer) in the “Time-Resolved Fluorescence” mode.

[3] = tested on: NIH3T3^MEN2A(C634R) cells; assay: Survival curves by Coulter Counter cell count, 72 h; type: cell-based, murine; conditions: Mus musculus, NIH3T3MEN2A, 72 h treatment, read-out: Cont at 72 h IC50
Method: (§1) NIH3T3 Murine fibroblasts and the transfected line NIH3T3^MEN2A(C634R) were treated with increasing concentrations of the compounds of the invention for 72 h. Survival curves were obtained by Coulter Counter cell count. IC50s calculated from said curves are reported in Table 9: the higher sensitivity of the oncoprotein-expressing cell line is evident. The reversal of the morphologically transformed phenotype of NIH3T3^MEN2A (C634R) cells in the presence of the compounds of the invention was evaluated by contrast phase microscopy after 24 h treatment and photographically documented.

[4] = tested on: NIH3T3^MEN2A(C634R) cells; assay: Reversal of morphologically transformed phenotype, contrast phase microscopy, 24 h; type: cell-based, murine; conditions: 24 h treatment; for minimal effective concentration: Mus musculus, NIH3T3MEN2A, read-out: Morphology a 24 h: concentration from which reversal was observed
Method: as §1

[5] = cell-free DELFIA, 50 ng Ret TKR, 3 μM ATP, 10 min. at 30° C., read-out: IC50
[6] = cell-free DELFIA, 25 ng cKit TKR, 150 μM ATP, 20 minutes at 30° C., read-out: IC50

Row | melting point | Structure (SMILES) | IC50 [1, 5] | IC50 [2, 6] | also measured
1 | 165 to 167 °C | COc1ccc(OC(=O)Oc2ccc(/C=C3/C(=O)Nc4cc(OC)c(OC)cc43)cc2)cc1 [Example H.1, (E)-4-(5,6-dimethoxy-2-oxo-1,2-dihydro-indol-3-ylidenemethyl)phenyl, 4-methoxyphenyl Carbonate] | 4.43 µM | 1.19 µM | IC50 [3]: 3.3 ± 0.03 µM; Morphology a 24 h [4]: REVERSAL; minimal effective concentration [4]: ≥ 10 µM
2 | 189 to 191 °C | COc1ccc(NC(=O)Oc2ccc(/C=C3/C(=O)Nc4cc(OC)c(OC)cc43)cc2)cc1 | – | – | –
3 | 255 to 257 °C | COc1cc2c(cc1OC)/C(=C\c1ccc(OC(=O)N3CCOCC3)cc1)C(=O)N2 [B.2, Morpholine-4-carboxylic Acid, (E)-4-(5,6-dimethoxy-2-oxo-1,2-dihydro-indol-3-ylidenemethyl)phenyl Ester] | – | – | –
4 | – | COc1cc2c(cc1OC)/C(=C\c1ccc(OCCO)cc1)C(=O)N2 [D.1, (E) 3-[4-(2-hydroxyetoxy)benzylidene]-5,6-dimethoxy-1,3-dihydro-indol-2-one] | 1.12 µM | 3.63 µM | IC50 [3]: 4.3 ± 0.6 µM; Morphology a 24 h [4]: REVERSAL; minimal effective concentration [4]: ≥ 10 µM
5 | – | COc1cc2c(cc1OC)/C(=C/c1ccc(OC(=O)CCCCNC(=O)OC(C)(C)C)cc1)C(=O)N2 [G.2, 5-tert-Butoxycarbonylamino-pentanoic Acid, (Z)-4-(5,6-dimethoxy-2-oxo-1,2-dihydro-indol-3-ylidenemethyl)phenyl Ester] | 3.45 µM | 0.77 µM | –
6 | – | COc1ccc(OC(=O)Oc2ccc(/C=C3\C(=O)Nc4cc(OC)c(OC)cc43)cc2)cc1 [Example H.2, (Z)-4-(5,6-dimethoxy-2-oxo-1,2-dihydro-indol-3-ylidenemethyl)phenyl, 4-methoxyphenyl Carbonate] | 4.84 µM | 0.28 µM | –
7 | > 250 °C | COc1cc2c(cc1OC)/C(=C\c1ccc(OC(=O)c3cnccn3)cc1)C(=O)N2 [F.5, Pyrazine-2-carboxylic Acid, (E)-4-(5,6-dimethoxy-2-oxo-1,2-dihydro-indol-3-ylidenemethyl)phenyl Ester] | – | – | –
8 | 228 to 230 °C | COc1cc2c(cc1OC)/C(=C\c1ccc(OC(=O)c3ccccc3)cc1)C(=O)N2 [Example E.1, Benzoic Acid, (E)-4-(5,6-dimethoxy-2-oxo-1,2-dihydro-indol-3-ylidenemethyl)phenyl Ester] | – | – | –
9 | 183 to 185 °C | COc1cc2c(cc1OC)/C(=C\c1ccc(OC(=O)N(CCO)CCO)cc1)C(=O)N2 | – | – | –
10 | – | CCOP(=O)(OCC)Oc1ccc(/C=C2/C(=O)Nc3cc(OC)c(OC)cc32)cc1 [Example C.2, (E)-4-(5,6-dimethoxy-2-oxo-1,2-dihydro-indol-3-ylidenemethyl)phenyl Diethyl Phosphate] | – | – | IC50 [3]: 1.7 ± 0.1 µM; Morphology a 24 h [4]: REVERSAL; minimal effective concentration [4]: ≥ 5 µM; IC50 [1]: 63.5 µM; IC50 [2]: 5.09 µM
11 | 95 to 97 °C | CCCCCCCCCC(=O)Oc1ccc(/C=C2\C(=O)Nc3cc(OC)c(OC)cc32)cc1 [Example G.1, n-decanoic Acid, (Z)-4-(5,6-dimethoxy-2-oxo-1,2-dihydro-indol-3-ylidenemethyl)phenyl Ester] | – | – | –
12 | > 260 °C | COc1cc2c(cc1OC)/C(=C\c1ccc(OC(=O)N3CCN(c4ccccc4)CC3)cc1)C(=O)N2 [B.7, 4-Phenylpiperazine-1-carboxylic Acid, (E)-4-(5,6-dimethoxy-2-oxo-1,2-dihydro-indol-3-ylidenemethyl)phenyl Ester] | 3.23 µM | 2.78 µM | –
13 | 117 to 119 °C | COCCOCCOCC(=O)Oc1ccc(/C=C2/C(=O)Nc3cc(OC)c(OC)cc32)cc1 [F.3, [2-(2-Methoxy-ethoxy)-ethoxy]acetic Acid, (E)-4-(5,6-dimethoxy-2-oxo-1,2-dihydro-indol-3-ylidenemethyl)phenyl Ester] | 3.79 µM | 5.08 µM | –
14 | 238 to 240 °C | COc1cc2c(cc1OC)/C(=C\c1ccc(OC(=O)NC(C)(C)C)cc1)C(=O)N2 | – | – | –
15 | 189 to 191 °C | COc1cc2c(cc1OC)/C(=C\c1ccc(OC(C)=O)cc1)C(=O)N2 [E.2, Acetic Acid, (E)-4-(5,6-dimethoxy-2-oxo-1,2-dihydro-indol-3-ylidenemethyl)phenyl Ester] | – | – | IC50 [3]: 1.5 ± 0.05 µM; Morphology a 24 h [4]: REVERSAL; minimal effective concentration [4]: ≥ 5 µM
16 | – | COc1cc2c(cc1OC)/C(=C/c1ccc(OC(=O)c3cccn3C)cc1)C(=O)N2 [G.3, 1-Methyl-1H-pyrrole-2-carboxylic Acid, (Z)-4-(5,6-dimethoxy-2-oxo-1,2-dihydro-indol-3-ylidenemethyl)phenyl Ester] | 6.38 µM | 2.65 µM | –
17 | 165 to 167 °C | COc1cc2c(cc1OC)/C(=C\c1ccc(OC(=O)c3cccn3C)cc1)C(=O)N2 [Example F.4, 1-Methyl-1H-pyrrole-2-carboxylic Acid, (E)-4-(5,6-dimethoxy-2-oxo-1,2-dihydro-indol-3-ylidenemethyl)phenyl Ester] | – | – | –
18 | 138 to 140 °C | CCCCCCCCCC(=O)Oc1ccc(/C=C2/C(=O)Nc3cc(OC)c(OC)cc32)cc1 [Example F.1, n-decanoic Acid, (E)-4-(5,6-dimethoxy-2-oxo-1,2-dihydro-indol-3-ylidenemethyl)phenyl Ester] | – | – | –
19 | 227 to 229 °C | COc1cc2c(cc1OC)/C(=C\c1ccc(OC(=O)c3cccnc3)cc1)C(=O)N2 [E.3, Nicotinic Acid, (E)-4-(5,6-dimethoxy-2-oxo-1,2-dihydro-indol-3-ylidenemethyl)phenyl Ester] | – | – | –
20 | – | COc1cc2c(cc1OC)/C(=C\c1ccc(OC(=O)N3CCN(CCOCCO)CC3)cc1)C(=O)N2 [B.6, 4-[2-(2-Hydroxyethoxy)ethyl]piperazine-1-carboxylic Acid (E)-4-(5,6-dimethoxy-2-oxo-1,2-dihydro-indol-3-ylidenemethyl)phenyl Ester] | 6.65 µM | 7.47 µM | IC50 [3]: 5.6 ± 1.8 µM; Morphology a 24 h [4]: REVERSAL; minimal effective concentration [4]: ≥ 10 µM

Row | Structure (SMILES) | melting point | IC50 [1, 5] | IC50 [2, 6] | also measured
21 | COc1cc2c(cc1OC)/C(=C\c1ccc(OC(=O)CCCCNC(=O)OC(C)(C)C)cc1)C(=O)N2 [Example F.2, 5-tert-Butoxycarbonylamino-pentanoic Acid, (E)-4-(5,6-dimethoxy-2-oxo-1,2-dihydro-indol-3-ylidenemethyl)phenyl Ester] | 101 to 103 °C | 1.37 µM | 1.2 µM | –
22 | CCCCCCNC(=O)Oc1ccc(/C=C2/C(=O)Nc3cc(OC)c(OC)cc32)cc1 [A.4, n-Hexyl Carbamic Acid, (E)-4-(5,6-dimethoxy-2-oxo-1,2-dihydro-indol-3-ylidenemethyl)phenyl Ester] | 168 to 170 °C | 5.73 µM | 0.135 µM | –
23 | COc1cc2c(cc1OC)/C(=C\c1ccc(OC(=O)N3CCC(N4CCCCC4)CC3)cc1)C(=O)N2 [B.5, 4-(1′-Piperidinyl)-1-piperidinecarboxylic Acid, (E)-4-(5,6-dimethoxy-2-oxo-1,2-dihydro-indol-3-ylidenemethyl)phenyl Ester] | 235 to 237 °C | 2.17 µM | 4.68 µM | IC50 [3]: 2 ± 0.7 µM; Morphology a 24 h [4]: REVERSAL; minimal effective concentration [4]: ≥ 5 µM
24 | COc1cc2c(cc1OC)/C(=C\c1ccc(OC(=O)Nc3ccccc3)cc1)C(=O)N2 [Example A.1, Phenylcarbamic Acid, (E)-4-(5,6-dimethoxy-2-oxo-1,2-dihydro-indol-3-ylidenemethyl)phenyl Ester] | 201 to 203 °C | 8.39 µM | 1.66 µM | –

Reference: patent US20050209195A1, “Indolinone derivatives” (Cell Therapeutics Europe S.r.I, priority 2004, published 2005)
